The results in this text go back to ChEMBL document CHEMBL1862790, “Optimisation of fenarimol series for the treatment of Chagas disease”.

A value given as a limit tells only on which side of the number the result lay.

A short description of data set [1]: DNDI: Cytotoxicity against L-6 rat myoblasts from skeletal muscle cells. The settings on record: L6 rat skeletal muscle myoblast cells, IC50.
Data set [2] concerns Trypanosoma cruzi. Briefly: microbe, parasite or virus in culture. In kind it is functional, Tulahuen LacZ, Clone C4. The settings on record: Trypanosoma cruzi, Tulahuen LacZ, Clone C4.
Data set [3] deals with Trypanosoma cruzi. Briefly: microbe, parasite or virus in culture. Type of data set: functional, organism-based, Tulahuen LacZ, Clone C4. The settings on record: Trypanosoma cruzi, Tulahuen LacZ, Clone C4.

For orientation: IC50 means the concentration that gives 50% inhibition. A high value points to lower potency. By IC90 is commonly meant the concentration needed for an effect of 90%. For `Cc1noc(C)c1C(=O)NC1CCN(C(c2ccc(C(F)(F)F)cc2)c2cccnc2)CC1` (stereo unspecified), the IC50 in data set [1] is over 100000 nM; in the data set with Trypanosoma cruzi [3] it was 9 nM. Besides, in the data set with Trypanosoma cruzi [2], it took 28 nM to reach the 90% level (IC90).
For `Fc1cc(Cl)ccc1C(NC1CCN(c2ccc(Cl)cc2)CC1)c1cccnc1` (stereo unspecified), in that order: 47200 nM, 7.5 nM and 25 nM.
For `Cc1nc(C(=O)NC2CCN(C(c3ccc(C(F)(F)F)cc3)c3cccnc3)CC2)co1` (stereo unspecified), in that order: 56400 nM, 19.5 nM and 44 nM.
On to `Cc1noc(C)c1C(=O)N1CCC(NC(c2ccc(C(F)(F)F)cc2)c2cncs2)CC1` (stereo unspecified), for which the IC50 in data set [1] is over 100000 nM; with Trypanosoma cruzi [3], 140 nM. This compound registered an IC90 with Trypanosoma cruzi [2] of 516 nM.
Taken in the same sequence, the figures for `Fc1ccccc1OC1CCN(C(c2ccc(C(F)(F)F)cc2)c2cccnc2)CC1` (stereo unspecified) were 67800 nM, 62 nM and over 90 nM.
As to `Cc1nocc1C(=O)NC1CCN(C(c2ccc(C(F)(F)F)cc2)c2cccnc2)CC1` (stereo unspecified), the IC50 in data set [1] amounted to 65300 nM; with Trypanosoma cruzi [3] it was 15.5 nM. Further, in the data set on Trypanosoma cruzi [2], the 90% effect concentration (IC90) amounted to 176 nM.
Taken in the same sequence, the figures for `N#Cc1ccccc1N1CCC(NC(c2cccnc2)c2ccc(Cl)cc2F)CC1` (stereo unspecified) were 39900 nM, 7.48 nM and 24.9 nM.
For `Cc1cc(C(=O)NC2CCN(C(c3ccc(C#N)cc3)c3cccnc3)CC2)nn1C` (stereo unspecified), in that order: over 100000 nM, 260 nM and 962 nM.
Taken in the same sequence, the figures for `FC(F)(F)c1ccc(N(CC2CCN(c3ccc(Cl)cc3)CC2)c2cccnc2)cc1` were 76300 nM, 19 nM and 41 nM.
Turning to `Cc1nc(C(=O)NC2CCN(C(c3ccc(C(F)(F)F)cc3)c3cccnc3)CC2)cs1` (stereo unspecified), the IC50 in data set [1] was 43800 nM; in the data set on Trypanosoma cruzi [3] it was 17.5 nM. This compound also had an IC90 with Trypanosoma cruzi [2] of 41 nM.
Taken in the same sequence, the figures for `N#Cc1ccnc(N2CCC(NC(c3ccc(Cl)cc3)c3cccnc3)CC2)n1` (stereo unspecified) were 57100 nM, 60 nM and 86 nM.
Taken in the same sequence, the figures for `Fc1cc(Cl)ccc1C(NC1CCN(c2nccc(C(F)(F)F)n2)CC1)c1cccnc1` (stereo unspecified) were 55400 nM, 22.5 nM and 63 nM.
Taken in the same sequence, the figures for `FC(F)(F)c1ccc(C(c2cccnc2)N2CCC(Oc3ccccc3Cl)CC2)cc1` (stereo unspecified) were 60100 nM, 41 nM and 93 nM.
Consider `O=C(c1ccccc1)N1CC(NC(c2ccc(C(F)(F)F)cc2)c2cccnc2)C1` (stereo unspecified), for which the IC50 in data set [1] was determined as 83800 nM; in the data set on Trypanosoma cruzi [3], 189 nM. In the data set on Trypanosoma cruzi [2], the IC90 was determined as 720 nM.
For `N#Cc1cnc(N2CCC(NC(c3cccnc3)c3ccc(Cl)cc3F)CC2)s1` (stereo unspecified), in that order: 55700 nM, 21 nM and 44.5 nM.
For `CC(C)(C)OC(=O)N1CCC(CN(c2ccc(C(F)(F)F)cc2)c2cccnc2)CC1`, in that order: 51700 nM, 28 nM and 67 nM.
For `Fc1cc(Cl)ccc1C(NC1CCN(c2ccccc2C(F)(F)F)CC1)c1cccnc1` (stereo unspecified), in that order: 57000 nM, 17 nM and 64.5 nM.
As to `Cc1cc(C(=O)N2CCC(NC(c3ccc(C(F)(F)F)cc3)c3cccnc3)CC2)nn1C` (stereo unspecified), the IC50 is 58600 nM in data set [1] and 66.5 nM in the data set on Trypanosoma cruzi [3]. This compound returned an IC90 with Trypanosoma cruzi [2] of 268 nM.
Taken in the same sequence, the figures for `O=C(c1ccccc1)N1CCC(CN(c2ccc(C(F)(F)F)cc2)c2cccnc2)CC1` were 51400 nM, 43 nM and 86 nM.
Taken in the same sequence, the figures for `Cc1ncsc1C(=O)N1CC(NC(c2ccc(C(F)(F)F)cc2)c2cccnc2)C1` (stereo unspecified) were over 100000 nM, 186 nM and 553 nM.
For `N#Cc1ccc(C(c2cccnc2)N2CCC(NC(=O)c3cc[nH]n3)CC2)cc1` (stereo unspecified), in that order: over 100000 nM, 448 nM and 917 nM.
For the compound `Cc1cc(C(=O)NC2CCN(C(c3ccc(C(F)(F)F)cc3)c3cccnc3)CC2)n(C)n1` (stereo unspecified), the IC50 in data set [1] was 54600 nM; with Trypanosoma cruzi [3], 12 nM. The same compound had an IC90 in the data set on Trypanosoma cruzi [2] of 28.5 nM.
Taken in the same sequence, the figures for `FC(F)(F)c1ccc(C(NC2CCN(c3ncccn3)CC2)c2cscn2)cc1` (stereo unspecified) were 88100 nM, over 1000 nM and over 1000 nM.
For `Fc1cnc(N2CCC(NC(c3cccnc3)c3ccc(Cl)cc3F)CC2)nc1` (stereo unspecified), in that order: 73300 nM, 32 nM and 93.5 nM.
For `Cc1n[nH]c(C)c1C(=O)N1CCC(NC(c2ccc(C(F)(F)F)cc2)c2cccnc2)CC1` (stereo unspecified), in that order: over 100000 nM, 26.5 nM and 150 nM.
For the compound `FC(F)(F)c1ccc(N2CCC(NC(c3ccc(Cl)cc3)c3cccnc3)CC2)cc1` (stereo unspecified), the IC50 amounted to 53500 nM in data set [1] and 11 nM in the data set on Trypanosoma cruzi [3]. In the data set on Trypanosoma cruzi [2], this compound had an IC90 of 27.5 nM.
For `Fc1ccc(N2CCC(NC(c3cccnc3)c3ccc(Cl)cc3F)CC2)cc1` (stereo unspecified), in that order: 55400 nM, 19 nM and 53 nM.
Taken in the same sequence, the figures for `Fc1cccc(F)c1N1CCC(NC(c2ccc(C(F)(F)F)cc2)c2cccnc2)CC1` (stereo unspecified) were 54200 nM, 18 nM and 54.5 nM.
For `FC(F)(F)c1ccc(C(c2cccnc2)N2CCC(Oc3cccc(Cl)c3)CC2)cc1` (stereo unspecified), in that order: 61200 nM, 59 nM and over 100 nM.
On to `Cc1ncsc1C(=O)N1CCC(NC(c2ccc(C(F)(F)F)cc2)c2cncs2)CC1` (stereo unspecified), for which the IC50 in data set [1] is over 100000 nM; in the data set with Trypanosoma cruzi [3] it was 68.5 nM. Also, the 90% effect level in the data set with Trypanosoma cruzi [2] (IC90) was put at 240 nM.
For `N#Cc1ccnc(N2CCC(NC(c3ccc(C(F)(F)F)cc3)c3cccnc3)CC2)n1` (stereo unspecified), in that order: 49700 nM, 31 nM and 120 nM.
Take `NC(=O)c1cccc(N2CCC(NC(c3cccnc3)c3ccc(Cl)cc3F)CC2)c1` (stereo unspecified): the results for the IC50 (in data set [1]; in the data set with Trypanosoma cruzi [3]) were over 100000 nM and 71.5 nM, respectively. Besides, the 90% effect concentration (IC90) in the data set on Trypanosoma cruzi [2] is over 100 nM.
Taken in the same sequence, the figures for `Cc1n[nH]c(C)c1C(=O)NC1CCN(C(c2ccc(C#N)cc2)c2cccnc2)CC1` (stereo unspecified) were over 100000 nM, 185 nM and 518 nM.
For `FC(F)(F)c1ccc(C(NC2CN(c3ncccn3)C2)c2cccnc2)cc1` (stereo unspecified), in that order: over 100000 nM, 115 nM and 756 nM.
For `O=C(NC1CCN(C(c2ccc(C(F)(F)F)cc2)c2cccnc2)CC1)c1ccccc1C(F)(F)F` (stereo unspecified), in that order: over 100000 nM, 6 nM and 10 nM.
As for `Cn1cc(C(=O)NC2CCN(C(c3ccc(C(F)(F)F)cc3)c3cccnc3)CC2)c(C(F)(F)F)n1` (stereo unspecified), the 50% inhibitory concentration (IC50) worked out at 53400 nM in data set [1] and 16 nM in the data set with Trypanosoma cruzi [3]. This compound came in with an IC90 in the data set with Trypanosoma cruzi [2] of 36.5 nM.
For `Cc1cc(C(=O)N2CCC(NC(c3ccc(C(F)(F)F)cc3)c3cccnc3)CC2)n(C(C)(C)C)n1` (stereo unspecified), in that order: 71700 nM, 47.5 nM and 150 nM.
Consider `NC(=O)c1ccccc1N1CCC(NC(c2cccnc2)c2ccc(Cl)cc2F)CC1` (stereo unspecified), for which the results for the IC50 (in data set [1]; with Trypanosoma cruzi [3]) were 71800 nM and 76 nM, respectively. This compound also yielded an IC90 in the data set with Trypanosoma cruzi [2] of over 100 nM.
Regarding `N#Cc1ccccc1OC1CCN(C(c2ccc(C(F)(F)F)cc2)c2cccnc2)CC1` (stereo unspecified), the IC50 worked out at 57800 nM in data set [1] and 48 nM in the data set on Trypanosoma cruzi [3]. In the data set on Trypanosoma cruzi [2], this compound yielded an IC90 of 90 nM.
For `CC(C)(C)OC(=O)N1CC(NC(c2ccc(C(F)(F)F)cc2)c2cccnc2)C1` (stereo unspecified), in that order: 62500 nM, 95 nM and 702 nM.
Taken in the same sequence, the figures for `Cc1nc(C)c(C(=O)NC2CCN(C(c3ccc(C(F)(F)F)cc3)c3cccnc3)CC2)s1` (stereo unspecified) were 55700 nM, 18 nM and 31 nM.
Taken in the same sequence, the figures for `FC(F)(F)c1ccc(C(NC2CCN(c3ncccn3)CC2)c2cncs2)cc1` (stereo unspecified) were 76700 nM, 20 nM and 64 nM.
As to `Fc1ccc(OC2CCN(C(c3ccc(C(F)(F)F)cc3)c3cccnc3)CC2)cc1` (stereo unspecified), the IC50 stood at 23800 nM in data set [1] and 21 nM in the data set with Trypanosoma cruzi [3]. Further, the 90% effect concentration (IC90) in the data set with Trypanosoma cruzi [2] was 30 nM.
Consider `Fc1cnc(N2CCC(NC(c3ccc(Cl)cc3)c3cccnc3)CC2)nc1` (stereo unspecified), for which the half-maximal inhibitory concentration (IC50) in data set [1] amounted to 58200 nM; in the data set with Trypanosoma cruzi [3], 34 nM. The compound further showed an IC90 with Trypanosoma cruzi [2] of 88 nM.
Taken in the same sequence, the figures for `Fc1ccccc1N1CCC(NC(c2ccc(C(F)(F)F)cc2)c2cccnc2)CC1` (stereo unspecified) were 53100 nM, 17 nM and 30.5 nM.
For `Cc1noc(C)c1C(=O)N1CCC(CN(c2ccc(C(F)(F)F)cc2)c2cccnc2)CC1`, in that order: 72400 nM, 86 nM and over 100 nM.
For `FC(F)(F)c1ccc(C(c2cccnc2)N2CCC(Oc3ccccc3)CC2)cc1` (stereo unspecified), in that order: 54400 nM, 26.5 nM and over 100 nM.
On to `N#Cc1ccccc1N1CCC(NC(c2ccc(C(F)(F)F)cc2)c2cccnc2)CC1` (stereo unspecified), for which the IC50 in data set [1] turned out to be 52300 nM; with Trypanosoma cruzi [3] it was 7 nM. Besides, the 90% effect level with Trypanosoma cruzi [2] (IC90) was put at 20.5 nM.
For `N#Cc1cnc(N2CCC(NC(c3ccc(Cl)cc3)c3cccnc3)CC2)s1` (stereo unspecified), in that order: 48600 nM, 17 nM and 25 nM.
`FC(F)(F)c1ccc(C(NC2CCN(c3ccccc3C(F)(F)F)CC2)c2cccnc2)cc1` (stereo unspecified): the figures for the 50% inhibitory concentration (IC50) (in data set [1]; in the data set with Trypanosoma cruzi [3]) were 45800 nM and 9 nM, respectively. Further, in the data set on Trypanosoma cruzi [2], the 90% effect level (IC90) was put at 31.5 nM.
For `OC(c1cccnc1)(c1cncc(F)c1)c1ccc(Cl)cc1F` (stereo unspecified), in that order: over 100000 nM, 228 nM and 868 nM.
For `Cc1cc(C(=O)NC2CCN(C(c3ccc(C(F)(F)F)cc3)c3cccnc3)CC2)n(C(C)(C)C)n1` (stereo unspecified), in that order: over 100000 nM, 13.5 nM and 26.5 nM.
